Reference: paper PMC6385087, “New Multitarget Hybrids Bearing Tacrine and Phenylbenzothiazole Motifs as Potential Drug Candidates for Alzheimer’s Disease” (Molecules, 2019)

Columns and labels:
Solubility in methanol = assay type: physicochemical
SH-SY5Y cells = assay: Dose-response screening for non-toxic concentration, MTT reduction; assay type: cell-based; conditions: dose-response screening from 0.2 μM to 5 μM, 25 h
Procedure: The neuroprotective effect of TAC-PhBTA conjugates was evaluated using SH-SY5Y cells treated with Aβ1–42 peptides or ascorbate/iron. For each compound, a dose-response curve was performed to select a non-toxic concentration in order to analyze its neuroprotective effect (Figure 3).
SH-SY5Y human neuroblastoma cell line (ATCC-CRL-2266) grown in Dulbecco’s modified Eagle’s medium (DMEM) obtained from Gibco-Invitrogen (Life Technologies Ltd., Liverpool, UK) with 10% heat inactivated fetal calf serum, containing 50 U/mL penicillin, and 50 μg/mL streptomycin, under a humidified atmosphere of 95% air-5% CO2 at 37 °C. Cells were plated at 0.12 × 10^6 cells/mL for cell viability assay. […]. As a result we selected a 2.5 μM final concentration for compound 16; 0.5 μM final concentration for compound 17; 0.2 μM final concentration for compounds 14 and 15; and a 1 μM final concentration for compounds 19 and 18. […] The compounds were added to the cell media 1 h before the incubation with Aβ1–42 or ferrous sulfate/L-ascorbic acid. Aβ1–42 or ferrous sulfate/L-ascorbic acid where incubated alone or with the compound for an additional 24 h. Aβ1–42 was prepared as 276.9 μM stock in sterile water and added to the medium at 1 μM final concentration. Ferrous sulfate was freshly prepared as 0.36 M stock in water and added to the medium at 500 μM final concentration. L-Ascorbic Acid was freshly prepared as 80 mM stock in water and added to the medium at 5 mM final concentration. Aβ1–42 was purchased from Bachem (Torrance, CA, USA) and ferrous sulfate and L-ascorbic acid from Sigma Chemical Co (St. Louis, MO, USA).
Cell viability was determined by a MTT (3-(4,5-dimethylthiazol-2-yl)-2,5-diphenyltetrazolium bromide) reduction test. In viable cells, the enzyme succinate dehydrogenase metabolizes MTT into formazan that absorbs light at 570 nm. Following the cell treatment protocol the medium was aspirated and 0.5 mL MTT (0.5 mg/mL) was added to each well. The plate was then incubated at 37 °C for 1 h 30 min protected from light. At the end of the incubation period the formazan precipitates were solubilized with 0.5 mL of acidic isopropanol (0.04 M HCl/isopropanol). The absorbance was measured at 570 nm. Cell reduction ability was expressed as a percentage of untreated control cells.

Aβ1–42 self-aggregation = biological target: T1, Aβ1–42 self-aggregation (Homo sapiens, UniProt P05067); assay: Aβ1–42 self-aggregation inhibition, thioflavin T fluorescence assay; assay type: biochemical; conditions: self-mediated Aβ42 aggregation, ThT fluorescence, CL = 40 μM, means of two experiments; for inhibition at 40 µM: read-out: Inhibition of Aβ-self-aggregation (%)
T1 construct: Commercially available Aβ1-42 peptide was obtained from Aldrich; purchased Aldrich
T1 sequence (P05067 672-713 limits assumed): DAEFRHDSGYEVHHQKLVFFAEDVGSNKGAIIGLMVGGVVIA
Procedure: […]. Since the compounds of this series presented some solubility problems in methanol, the assays were performed with ligands at concentrations of 40 µM, i.e., half of the concentration usually used (80 µM) in these assays. […]. […] So, it appears that introduction of a chloro substituent in TAC and/or a hydroxyl group in the carbon linker are not well suited for the interaction with β-sheet secondary structure of Aβ aggregates. […].
Commercially available Aβ1-42 peptide was obtained from Aldrich and stored at −20 °C. It was treated with 1,1,1,3,3,3-hexafluoropropan-2-ol (HFIP) to avoid self-aggregation and reserved. HFIP pre-treated Aβ1–42 samples were re-dissolved in CH3CN/Na2CO3 (300 µM)/NaOH (250 µM) (48.3:48.3:4.3, v/v/v) solvent mixture in order to have a stable stock solution; this solution (500 µM) was further diluted in phosphate buffer (0.215 M, pH 8.0) to obtain 40 µM solution. The ligand, which was previously dissolved in methanol, was further diluted in phosphate buffer to a final concentration of 40 µM. Aβ1–42 aggregation was determined by measuring the fluorescence emission of Thioflavin T dye, with a Cary Eclipse Varian fluorimeter (Molecular Devices, San José, CA, USA).
After incubation for 24 h at 37 °C, without stirring, the samples were added to a 96-well plate (BD Falcon) with 180 µL of 5 µM ThT in 50 mM glycine-NaOH (pH 8.5) buffer. Blank samples were prepared for each concentration in a similar way, devoid of peptide. As for the control, a sample of the peptide was incubated under identical conditions but without the inhibitor. After 5-min incubation with the dye, the ThT fluorescence was measured at the following wavelengths: 446 nm (excitation) and 486 nm (emission). The percent inhibition of the self-induced aggregation due to the presence of the test compound was calculated by Equation (2), in which IFi and IF0 corresponded to the fluorescence intensities, in the presence and the absence of the test compound, minus the fluorescence intensities due to the respective blanks. I% = 100 − (IFi/IF0 × 100)(2)
The reported values were obtained as the mean ± S.E.M. of two different experiments.

Row | SMILES | Solubility in methanol (Solubility in methanol) | Highest non-toxic concentration selected (SH-SY5Y cells) | inhibition at 40 µM (Aβ1–42 self-aggregation) | Inhibition of Aβ-self-aggregation (%) (Aβ1–42 self-aggregation; 40 µM)
1 | COc1cc(-c2nc3ccccc3s2)ccc1OCC(=O)NCCCNc1c2c(nc3ccccc13)CCCC2 [compound 16, 2-(4-(Benzo[d]thiazol-2-yl)-2-methoxyphenoxy)-N-(3-((1,2,3,4-tetrahydroacridin-9-yl)amino)propyl)acetamide] | soluble in methanol | 2.5 µM | 33.7% | –
2 | COc1cc(-c2nc3ccccc3s2)ccc1OCC(=O)NCC(O)CNc1c2c(nc3cc(Cl)ccc13)CCCC2 (centres unmarked) [compound 19, 2-(4-(Benzo[d]thiazol-2-yl)-2-methoxyphenoxy)-N-(3-((6-chloro-1,2,3,4-tetrahydroacridin-9-yl)amino)-2-hydroxypropyl)acetamide] | – | 1 µM | ~31% | 31.3%
3 | COc1cc(-c2nc3ccccc3s2)ccc1OCC(=O)NCCNc1c2c(nc3cc(Cl)ccc13)CCCC2 [compound 15, 2-(4-(Benzo[d]thiazol-2-yl)-2-methoxyphenoxy)-N-(2-((6-chloro-1,2,3,4 tetrahydroacridin-9-yl)amino)ethyl)acetamide] | – | 0.2 µM | 27% | –
